What all share (experiment): MIC, microdilution broth method (NCCLS)
Holding throughout (type): cell-based
A general note: Dilution methods test growth across graded concentrations, often in twofold steps.

For test [1], the system named is S. pneumoniae ATCC49619. Conditions: D: S. pneumoniae ATCC49619, 35° C., 16-20 hours. Put shortly:
(§1)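 Following the NCCLS microdilution standard, organisms from actively growing broth cultures are added at roughly 5×10^4 CFU/well to two-fold drug series in cation-adjusted Mueller-Hinton broth. Trays incubate 16-20 hours at 35° C. before reading.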

The test system of test [2] is E. coli OC2605. To be noted: A: E. coli OC2605, 35° C., 16-20 hours. Put shortly:
as §1

Test [3] deals with S. aureus ATCC29213. To be noted: B: S. aureus ATCC29213, 35° C., 16-20 hours. Put shortly: as §1
Test [4] relates to E. faecalis ATCC29212. Conditions: C: E. faecalis ATCC29212, 35° C., 16-20 hours. The gist of the method:
as §1

Test [5] has as its system H. influenzae ATCC49247. Conditions: E: H. influenzae ATCC49247, 35° C., 16-20 hours. Put shortly: as §1

≈ marks a conversion by molar mass, not a printed value.

For the molecule `CC[C@H]1OC(=O)[C@H](C)C(=O)[C@H](C)[C@@H](O[C@@H]2O[C@H](C)C[C@H](N(C)C)[C@H]2O)[C@](C)(OC(=O)NCCCc2ccnc3ccccc23)C[C@@H](C)C(=O)[C@H](C)[C@H]2NC(=O)O[C@@]21C` [Compound 25], the MIC in test [1] amounted to 0.03 µg/mL (≈ 0.037 µM); in test [2] it was 8 µg/mL (≈ 9.86 µM); in test [3] it was 0.25 µg/mL (≈ 0.308 µM); in test [4], 0.06 µg/mL (≈ 0.074 µM); in test [5], 4 µg/mL (≈ 4.93 µM).

For the molecule `CC[C@H]1OC(=O)[C@H](C)C(=O)[C@H](C)[C@@H](O[C@@H]2O[C@H](C)C[C@H](N(C)C)[C@H]2O)[C@](C)(OC(=O)N(CC#Cc2ccccc2)CC#Cc2ccccc2)C[C@@H](C)C(=O)[C@H](C)[C@H]2NC(=O)O[C@@]21C` [Compound 11], the MIC in test [1] is 0.5 µg/mL (≈ 0.575 µM); in test [2], above 16 µg/mL; in test [3], 4 µg/mL (≈ 4.6 µM); in test [4], 2 µg/mL (≈ 2.3 µM); in test [5], above 16 µg/mL.

As for `CC[C@H]1OC(=O)[C@H](C)C(=O)[C@H](C)[C@@H](O[C@@H]2O[C@H](C)C[C@H](N(C)C)[C@H]2O)[C@](C)(OC(=O)NC/C=C/c2cnn(-c3ccccc3)c2)C[C@@H](C)C(=O)[C@H](C)[C@H]2NC(=O)O[C@@]21C` [Compound 62], the MIC in test [1] was 0.06 µg/mL (≈ 0.0728 µM); in test [2], above 16 µg/mL; in test [3], 0.25 µg/mL (≈ 0.303 µM); in test [4], 0.12 µg/mL (≈ 0.146 µM); in test [5] it was 4 µg/mL (≈ 4.85 µM).

With `CC[C@H]1OC(=O)[C@H](C)C(=O)[C@H](C)[C@@H](O[C@@H]2O[C@H](C)C[C@H](N(C)C)[C@H]2O)[C@](C)(OC(=O)NCCc2ccccc2)C[C@@H](C)C(=O)[C@H](C)[C@H]2NC(=O)O[C@@]21C` [Compound 3], the MIC in test [1] was 0.12 µg/mL (≈ 0.161 µM); in test [2], above 16 µg/mL; in test [3] it was 4 µg/mL (≈ 5.36 µM); in test [4] it was 1 µg/mL (≈ 1.34 µM); in test [5], 8 µg/mL (≈ 10.7 µM).

For the molecule `CC[C@H]1OC(=O)[C@H](C)C(=O)[C@H](C)[C@@H](O[C@@H]2O[C@H](C)C[C@H](N(C)C)[C@H]2O)[C@](C)(OC(=O)NC/C=C/c2ccc(-c3ncccn3)cc2F)C[C@@H](C)C(=O)[C@H](C)[C@H]2NC(=O)O[C@@]21C` [Compound 88], the MIC in test [1] came out at 0.06 µg/mL (≈ 0.0703 µM); in test [2], 16 µg/mL (≈ 18.7 µM); in test [3], 0.25 µg/mL (≈ 0.293 µM); in test [4] it was 0.06 µg/mL (≈ 0.0703 µM); in test [5], 8 µg/mL (≈ 9.37 µM).

Regarding `CCC1OC(=O)C(C)(F)C(=O)C(C)C(OC2OC(C)CC(N(C)C)C2O)C(C)(OC(=O)NCC=Cc2ccc(-c3ncccn3)cc2)CC(C)C(=O)C(C)C2NC(=O)OC12C` (stereo not drawn) [Compound 75], the MIC was 0.03 µg/mL (≈ 0.0351 µM) in test [1]; above 16 µg/mL in test [2]; 0.25 µg/mL (≈ 0.293 µM) in test [3]; 0.12 µg/mL (≈ 0.141 µM) in test [4]; 4 µg/mL (≈ 4.68 µM) in test [5].

As to `CC[C@H]1OC(=O)[C@H](C)C(=O)[C@H](C)[C@@H](O[C@@H]2O[C@H](C)C[C@H](N(C)C)[C@H]2O)[C@](C)(OC(=O)NC/C(C)=C/c2ccccc2)C[C@@H](C)C(=O)[C@H](C)[C@H]2NC(=O)O[C@@]21C` [Compound 21], the MIC in test [1] was 0.06 µg/mL (≈ 0.0777 µM); in test [2], above 16 µg/mL; in test [3], 0.5 µg/mL (≈ 0.648 µM); in test [4] it was 0.25 µg/mL (≈ 0.324 µM); in test [5], 4 µg/mL (≈ 5.18 µM).

As for `CC[C@H]1OC(=O)[C@H](C)C(=O)[C@H](C)[C@@H](O[C@@H]2O[C@H](C)C[C@H](N(C)C)[C@H]2O)[C@](C)(OC(=O)N2Cc3ccccc3C2)C[C@@H](C)C(=O)[C@H](C)[C@H]2NC(=O)O[C@@]21C` [Compound 138], the MIC is 0.5 µg/mL (≈ 0.672 µM) in test [1]; above 16 µg/mL in test [2]; 16 µg/mL (≈ 21.5 µM) in test [3]; 2 µg/mL (≈ 2.69 µM) in test [4]; 8 µg/mL (≈ 10.8 µM) in test [5].

For `CC[C@H]1OC(=O)[C@H](C)C(=O)[C@H](C)[C@@H](O[C@@H]2O[C@H](C)C[C@H](N(C)C)[C@H]2O)[C@](C)(OC(=O)NCC=C(c2ccccc2)c2ccccc2)C[C@@H](C)C(=O)[C@H](C)[C@H]2NC(=O)O[C@@]21C` [Compound 54], the MIC in test [1] was 0.12 µg/mL (≈ 0.144 µM); in test [2], above 16 µg/mL; in test [3], 1 µg/mL (≈ 1.2 µM); in test [4], 0.5 µg/mL (≈ 0.6 µM); in test [5], 2 µg/mL (≈ 2.4 µM).

(Values after patent US6613747B2, “6-O-carbamoyl ketolide antibacterials” (Ortho-McNeil Pharmaceutical, Inc., priority 2000, dated 2003).)
